The target of assay [1] is Ribosomal protein S6 kinase alpha-2 (Homo sapiens) (UniProt Q15349). Nature of the assay: Inhibition of RSK3 (unknown origin) at 10 uM after 120 mins P33 radiolabeled kinase activity assay.
Assay [2] addresses MAP kinase-interacting serine/threonine-protein kinase 1 (Homo sapiens) (UniProt Q9BUB5). Nature of the assay: Inhibition of MNK1 (unknown origin) at 10 uM after 120 mins P33 radiolabeled kinase activity assay.
Assay [3] addresses Fibroblast growth factor receptor 3 (Homo sapiens) (UniProt P22607). Nature of the assay: Inhibition of FGFR3 (unknown origin) at 10 uM after 120 mins P33 radiolabeled kinase activity assay.
The target in assay [4] is T1, Tyrosine-protein kinase ITK/TSK (Homo sapiens) (UniProt Q08881).
T1 sequence (whole entry): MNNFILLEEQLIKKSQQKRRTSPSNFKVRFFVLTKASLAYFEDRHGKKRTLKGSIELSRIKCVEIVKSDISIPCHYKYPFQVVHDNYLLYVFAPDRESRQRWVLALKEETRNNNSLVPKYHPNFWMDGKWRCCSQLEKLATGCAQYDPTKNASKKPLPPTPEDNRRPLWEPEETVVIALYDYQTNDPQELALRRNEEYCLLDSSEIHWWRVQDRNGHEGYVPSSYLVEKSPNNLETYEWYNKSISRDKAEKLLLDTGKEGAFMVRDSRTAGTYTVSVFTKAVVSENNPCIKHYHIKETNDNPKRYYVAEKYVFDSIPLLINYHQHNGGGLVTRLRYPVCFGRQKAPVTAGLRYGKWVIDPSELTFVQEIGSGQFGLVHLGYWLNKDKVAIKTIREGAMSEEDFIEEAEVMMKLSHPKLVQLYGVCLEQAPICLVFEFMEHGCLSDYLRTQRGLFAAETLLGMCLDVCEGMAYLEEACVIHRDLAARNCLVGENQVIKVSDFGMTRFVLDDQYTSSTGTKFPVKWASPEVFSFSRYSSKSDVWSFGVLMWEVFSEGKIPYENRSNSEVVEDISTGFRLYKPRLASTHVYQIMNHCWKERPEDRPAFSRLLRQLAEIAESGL
Nature of the assay: Inhibition of ITK (unknown origin) at 10 uM after 120 mins P33 radiolabeled kinase activity assay.

Assay [5] concerns the target Calcium/calmodulin-dependent protein kinase type 1G (Homo sapiens) (UniProt Q96NX5). Nature of the assay: Inhibition of CAMK1gamma (unknown origin) at 10 uM after 120 mins P33 radiolabeled kinase activity assay.
The target in assay [6] is T2, Ephrin type-B receptor 1 (Homo sapiens) (UniProt P54762).
T2 sequence (whole entry): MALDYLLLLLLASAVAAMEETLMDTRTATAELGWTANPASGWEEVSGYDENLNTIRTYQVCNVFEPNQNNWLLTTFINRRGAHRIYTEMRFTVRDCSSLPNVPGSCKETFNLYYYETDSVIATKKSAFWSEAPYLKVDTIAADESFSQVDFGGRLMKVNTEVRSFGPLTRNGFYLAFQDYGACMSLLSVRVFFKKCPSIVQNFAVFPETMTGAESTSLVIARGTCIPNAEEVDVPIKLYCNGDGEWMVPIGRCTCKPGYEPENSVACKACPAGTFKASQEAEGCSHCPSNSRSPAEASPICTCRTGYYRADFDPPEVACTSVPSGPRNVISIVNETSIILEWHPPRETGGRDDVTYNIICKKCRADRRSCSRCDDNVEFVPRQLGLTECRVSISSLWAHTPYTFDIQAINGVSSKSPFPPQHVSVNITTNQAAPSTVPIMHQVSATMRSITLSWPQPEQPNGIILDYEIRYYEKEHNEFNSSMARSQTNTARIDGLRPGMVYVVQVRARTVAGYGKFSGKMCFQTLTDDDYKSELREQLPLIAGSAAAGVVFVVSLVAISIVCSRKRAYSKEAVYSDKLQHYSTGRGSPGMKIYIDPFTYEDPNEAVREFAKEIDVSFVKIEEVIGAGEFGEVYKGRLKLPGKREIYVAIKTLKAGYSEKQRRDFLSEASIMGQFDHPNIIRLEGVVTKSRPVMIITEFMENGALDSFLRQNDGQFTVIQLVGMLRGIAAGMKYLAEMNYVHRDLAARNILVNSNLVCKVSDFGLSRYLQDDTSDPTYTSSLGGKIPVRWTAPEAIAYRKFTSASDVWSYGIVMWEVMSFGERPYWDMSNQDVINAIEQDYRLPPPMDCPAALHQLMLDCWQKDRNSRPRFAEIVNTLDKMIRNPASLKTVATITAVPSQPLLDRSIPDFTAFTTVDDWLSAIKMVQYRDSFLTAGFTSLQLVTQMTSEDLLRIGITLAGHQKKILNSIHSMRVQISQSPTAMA
Nature of the assay: Inhibition of EPHB1 (unknown origin) at 10 uM after 120 mins P33 radiolabeled kinase activity assay.

In assay [7] the target is Tyrosine-protein kinase Srms (Homo sapiens) (UniProt Q9H3Y6). Nature of the assay: Inhibition of SRMS (unknown origin) at 10 uM after 120 mins P33 radiolabeled kinase activity assay.
Sequence of Tyrosine-protein kinase Srms (Homo sapiens) (Q9H3Y6 whole entry): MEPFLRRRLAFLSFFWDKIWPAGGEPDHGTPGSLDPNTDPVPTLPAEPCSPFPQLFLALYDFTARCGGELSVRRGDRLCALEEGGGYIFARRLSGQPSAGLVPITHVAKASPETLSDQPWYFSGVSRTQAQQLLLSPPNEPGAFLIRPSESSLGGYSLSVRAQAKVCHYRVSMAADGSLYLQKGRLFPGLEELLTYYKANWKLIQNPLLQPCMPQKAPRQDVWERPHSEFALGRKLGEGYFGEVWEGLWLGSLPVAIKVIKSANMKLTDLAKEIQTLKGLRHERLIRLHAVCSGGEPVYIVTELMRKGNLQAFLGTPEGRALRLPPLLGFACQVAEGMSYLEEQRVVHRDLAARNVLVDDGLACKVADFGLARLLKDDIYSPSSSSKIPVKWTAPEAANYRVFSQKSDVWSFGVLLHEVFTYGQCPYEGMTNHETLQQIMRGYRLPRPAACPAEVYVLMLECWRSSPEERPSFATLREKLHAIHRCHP
For assay [8], the target named is Calcium/calmodulin-dependent protein kinase type II subunit beta (Homo sapiens) (UniProt Q13554). Nature of the assay: Inhibition of CAMK2beta (unknown origin) at 10 uM after 120 mins P33 radiolabeled kinase activity assay.
Sequence of Calcium/calmodulin-dependent protein kinase type II subunit beta (Homo sapiens) (Q13554 whole entry): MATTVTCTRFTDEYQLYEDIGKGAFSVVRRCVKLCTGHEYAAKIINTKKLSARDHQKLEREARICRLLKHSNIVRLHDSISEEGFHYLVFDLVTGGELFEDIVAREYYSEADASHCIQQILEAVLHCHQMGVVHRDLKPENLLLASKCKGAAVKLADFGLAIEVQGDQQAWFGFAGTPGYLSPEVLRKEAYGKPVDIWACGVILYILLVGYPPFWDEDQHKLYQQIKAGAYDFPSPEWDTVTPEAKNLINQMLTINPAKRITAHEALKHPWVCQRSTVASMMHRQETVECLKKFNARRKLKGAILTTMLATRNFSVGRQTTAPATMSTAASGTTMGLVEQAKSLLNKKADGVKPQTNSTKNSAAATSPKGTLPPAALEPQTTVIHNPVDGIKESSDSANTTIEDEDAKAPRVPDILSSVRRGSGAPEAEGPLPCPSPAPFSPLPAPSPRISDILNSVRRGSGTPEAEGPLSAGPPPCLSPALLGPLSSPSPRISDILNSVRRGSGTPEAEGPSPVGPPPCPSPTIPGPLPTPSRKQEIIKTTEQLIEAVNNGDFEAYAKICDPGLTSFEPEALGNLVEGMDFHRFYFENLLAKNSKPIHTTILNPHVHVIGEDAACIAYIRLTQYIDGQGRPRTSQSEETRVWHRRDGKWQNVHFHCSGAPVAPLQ

SMILES strings stand for the structures.

Sequence of Ribosomal protein S6 kinase alpha-2 (Homo sapiens) (Q15349 whole entry): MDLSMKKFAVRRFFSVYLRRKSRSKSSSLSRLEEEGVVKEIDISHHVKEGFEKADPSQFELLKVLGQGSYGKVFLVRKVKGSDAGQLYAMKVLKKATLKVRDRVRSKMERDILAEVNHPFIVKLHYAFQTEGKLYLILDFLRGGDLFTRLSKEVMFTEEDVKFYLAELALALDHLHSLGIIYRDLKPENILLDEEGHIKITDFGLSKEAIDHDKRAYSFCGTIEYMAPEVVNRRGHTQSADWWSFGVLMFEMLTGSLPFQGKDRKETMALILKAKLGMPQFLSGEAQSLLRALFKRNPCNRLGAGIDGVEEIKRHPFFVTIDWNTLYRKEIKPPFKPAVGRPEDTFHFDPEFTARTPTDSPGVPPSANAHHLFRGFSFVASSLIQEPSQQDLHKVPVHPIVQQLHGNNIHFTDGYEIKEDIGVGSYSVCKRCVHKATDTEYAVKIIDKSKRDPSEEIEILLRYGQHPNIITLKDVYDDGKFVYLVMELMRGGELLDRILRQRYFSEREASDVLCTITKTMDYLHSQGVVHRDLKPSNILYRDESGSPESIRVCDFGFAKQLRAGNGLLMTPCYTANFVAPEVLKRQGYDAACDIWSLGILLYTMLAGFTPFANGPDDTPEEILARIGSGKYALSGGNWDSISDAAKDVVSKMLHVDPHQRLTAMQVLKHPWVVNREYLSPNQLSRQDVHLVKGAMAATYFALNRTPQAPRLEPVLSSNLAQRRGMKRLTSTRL
Sequence of MAP kinase-interacting serine/threonine-protein kinase 1 (Homo sapiens) (Q9BUB5 whole entry, looked up): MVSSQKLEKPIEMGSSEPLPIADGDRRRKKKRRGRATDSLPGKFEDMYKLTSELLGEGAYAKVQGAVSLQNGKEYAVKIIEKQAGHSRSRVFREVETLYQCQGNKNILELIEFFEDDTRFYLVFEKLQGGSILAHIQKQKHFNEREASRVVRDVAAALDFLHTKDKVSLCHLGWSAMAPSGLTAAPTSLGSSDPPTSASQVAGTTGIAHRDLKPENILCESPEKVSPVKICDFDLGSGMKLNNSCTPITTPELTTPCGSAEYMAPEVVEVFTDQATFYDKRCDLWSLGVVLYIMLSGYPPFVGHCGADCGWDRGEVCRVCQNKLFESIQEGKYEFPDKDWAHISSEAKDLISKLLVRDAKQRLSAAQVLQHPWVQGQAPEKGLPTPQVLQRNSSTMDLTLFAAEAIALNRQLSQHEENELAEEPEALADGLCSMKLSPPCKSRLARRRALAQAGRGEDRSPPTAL
Sequence of Fibroblast growth factor receptor 3 (Homo sapiens) (P22607 23-806 limits assumed): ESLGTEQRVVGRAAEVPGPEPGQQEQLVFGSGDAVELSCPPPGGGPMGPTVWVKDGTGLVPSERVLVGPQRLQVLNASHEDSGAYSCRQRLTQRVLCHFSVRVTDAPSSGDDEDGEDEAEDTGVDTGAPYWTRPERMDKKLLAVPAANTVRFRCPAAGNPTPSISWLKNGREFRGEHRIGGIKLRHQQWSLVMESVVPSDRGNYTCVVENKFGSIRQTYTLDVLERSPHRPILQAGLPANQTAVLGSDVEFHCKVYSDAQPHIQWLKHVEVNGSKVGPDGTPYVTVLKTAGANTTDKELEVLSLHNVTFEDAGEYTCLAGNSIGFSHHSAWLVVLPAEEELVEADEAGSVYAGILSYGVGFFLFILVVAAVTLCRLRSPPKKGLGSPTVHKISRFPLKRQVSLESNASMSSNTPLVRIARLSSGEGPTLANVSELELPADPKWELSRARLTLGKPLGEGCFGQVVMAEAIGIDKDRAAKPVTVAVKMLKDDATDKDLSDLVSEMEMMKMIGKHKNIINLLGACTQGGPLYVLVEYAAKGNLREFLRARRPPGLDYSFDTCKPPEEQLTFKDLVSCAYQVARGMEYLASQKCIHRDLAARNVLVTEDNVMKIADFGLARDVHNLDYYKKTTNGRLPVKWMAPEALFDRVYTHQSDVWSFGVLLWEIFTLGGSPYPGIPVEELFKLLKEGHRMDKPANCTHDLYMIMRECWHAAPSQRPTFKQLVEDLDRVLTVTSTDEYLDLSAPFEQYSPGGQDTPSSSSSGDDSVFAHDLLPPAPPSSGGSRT
Sequence of Calcium/calmodulin-dependent protein kinase type 1G (Homo sapiens) (Q96NX5 whole entry): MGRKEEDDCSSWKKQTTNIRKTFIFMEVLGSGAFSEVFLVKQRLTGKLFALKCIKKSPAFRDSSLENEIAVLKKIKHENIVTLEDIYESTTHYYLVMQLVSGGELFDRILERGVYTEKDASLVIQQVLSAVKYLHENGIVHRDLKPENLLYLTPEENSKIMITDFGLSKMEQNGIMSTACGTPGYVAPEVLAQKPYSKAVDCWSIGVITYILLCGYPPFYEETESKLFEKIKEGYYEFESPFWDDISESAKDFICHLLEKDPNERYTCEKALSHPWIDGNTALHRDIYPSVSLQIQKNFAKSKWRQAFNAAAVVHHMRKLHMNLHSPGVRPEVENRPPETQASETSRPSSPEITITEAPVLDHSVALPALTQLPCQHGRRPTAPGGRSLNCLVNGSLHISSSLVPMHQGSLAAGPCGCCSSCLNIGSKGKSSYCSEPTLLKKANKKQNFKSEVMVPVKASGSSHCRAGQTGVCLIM

For `CS(=O)(=O)c1cccc(Nc2nccc(-c3sc(N4CCOCC4)nc3-c3cccc(NS(=O)(=O)c4c(F)cccc4F)c3)n2)c1`, the inhibition (commonly the change of the read-out against control, counted positive when it falls) in assay [1] was determined as 67.5%; in assay [2], 73%; in assay [3], 51.2%; in assay [4] it was 96.8%; in assay [5], 66.6%; in assay [6], 78.7%. Moreover, the inhibition was 98.4% in assay [7] and 8.74% in assay [8].
Turning to `CC(C)(C)c1cc(NC(=O)Nc2ccc(Oc3ccncc3)cc2)no1`, the inhibition in assay [1] was found to be 53.4%; in assay [2], 99.6%; in assay [3], 72.3%; in assay [4], 15.4%; in assay [5], 20.9%; in assay [6], 93.2%. Moreover, the inhibition is -2.8% in assay [7] and 13.5% in assay [8].
With `COCCNC(=O)c1ccc2c(c1)nc(-c1cnc(-c3ccc(Cl)cc3)[nH]1)n2CCOC`, the inhibition came out at 11.2% in assay [1]; 28.7% in assay [2]; 8.78% in assay [3]; 15.1% in assay [4]; 8.82% in assay [5]; 12.3% in assay [6]. Moreover, the results for the inhibition in assay [7] and in assay [8] were 4.18% and 7.54%, respectively.

For the origin of these results see ChEMBL document CHEMBL3627608, “Crystal structures of human RIP2 kinase catalytic domain complexed with ATP-competitive inhibitors: Foundations for understanding inhibitor selectivity” (Bioorg Med Chem, 2015).
